What follows are molecules tested on HIV (assay: MT4 Assay (anti-HIV activity)). Conditions: Human immunodeficiency virus 1, 96 h, read-out: HIV MT4 Assay IC50, HTLV-1 transformed cell line MT-4, cell titer glo, 10 point dose response curve.
Assay type: cell-based
Method in brief: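 IC50 values were fitted to 10-point dose-response series (3-4-fold dilutions, range >1000-fold), normalized to no-compound control. CellTiter-Glo read-out was taken after 96 hours in HTLV-1-transformed MT-4 cells. Cytotoxicity was measured in parallel under identical conditions.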

Compound | IC50
Cc1c(-c2c(C(OC(C)(C)C)C(=O)O)n(C)c(=O)c3cc(OCc4cc(F)ccc4F)ccc23)ccc2c1CCCO2 (centres unmarked) [Example 95, 2-(tert-butoxy)-2-{7-[(2,5-difluorophenyl)methoxy]-2-methyl-4-(5-methyl-3,4-dihydro-2H-1-benzopyran-6-yl)-1-oxo-1,2-dihydroisoquinolin-3-yl}acetic acid] | 90 nM
Cc1c(-c2c(C(OC(C)(C)C)C(=O)O)n(C)c(=O)c3cc(OCc4cccc(F)c4F)ccc23)ccc2c1CCCO2 (centres unmarked) [Example 96, 2-(tert-butoxy)-2-{7-[(2,3-difluorophenyl)methoxy]-2-methyl-4-(5-methyl-3,4-dihydro-2H-1-benzopyran-6-yl)-1-oxo-1,2-dihydroisoquinolin-3-yl}acetic acid] | 70 nM
Cc1c(-c2c(C(OC(C)(C)C)C(=O)O)n(C)c(=O)c3cc(OCc4cccnc4)ccc23)ccc2c1CCCO2 (centres unmarked) [Example 97, 2-(tert-butoxy)-2-[2-methyl-4-(5-methyl-3,4-dihydro-2H-1-benzopyran-6-yl)-1-oxo-7-(pyridin-3-ylmethoxy)-1,2-dihydroisoquinolin-3-yl]acetic acid] | 370 nM
Cc1c(-c2c(C(OC(C)(C)C)C(=O)O)n(C)c(=O)c3cc(OCc4c(F)cccc4F)ccc23)ccc2c1CCCO2 (centres unmarked) [Example 98, 2-(tert-butoxy)-2-{7-[(2,6-difluorophenyl)methoxy]-2-methyl-4-(5-methyl-3,4-dihydro-2H-1-benzopyran-6-yl)-1-oxo-1,2-dihydroisoquinolin-3-yl}acetic acid] | 90 nM
Cc1c(-c2c(C(OC(C)(C)C)C(=O)O)n(C)c(=O)c3cc(OCc4c(F)cc(F)cc4F)ccc23)ccc2c1CCCO2 (centres unmarked) [Example 99, 2-(tert-butoxy)-2-[2-methyl-4-(5-methyl-3,4-dihydro-2H-1-benzopyran-6-yl)-1-oxo-7-[(2,4,6-trifluorophenyl)methoxy]-1,2-dihydroisoquinolin-3-yl]acetic acid] | 130 nM
Cc1c(-c2c(C(OC(C)(C)C)C(=O)O)n(C)c(=O)c3cc(OCc4ccc(F)cn4)ccc23)ccc2c1CCCO2 (centres unmarked) [Example 100, 2-(tert-butoxy)-2-{7-[(5-fluoropyridin-2-yl)methoxy]-2-methyl-4-(5-methyl-3,4-dihydro-2H-1-benzopyran-6-yl)-1-oxo-1,2-dihydroisoquinolin-3-yl}acetic acid] | 270 nM
Cc1c(-c2c(C(OC(C)(C)C)C(=O)O)n(C)c(=O)c3cc(OCc4ccc(F)cn4)ccc23)cc(F)c2c1CCCO2 (centres unmarked) [Example 101, 2-(tert-butoxy)-2-[4-(8-fluoro-5-methyl-3,4-dihydro-2H-1-benzopyran-6-yl)-7-[(5-fluoropyridin-2-yl)methoxy]-2-methyl-1-oxo-1,2-dihydroisoquinolin-3-yl]acetic acid] | 290 nM
Cc1cccnc1COc1ccc2c(-c3ccc4c(c3C)CCCO4)c(C(OC(C)(C)C)C(=O)O)n(C)c(=O)c2c1 (centres unmarked) [Example 102, 2-(tert-butoxy)-2-[2-methyl-4-(5-methyl-3,4-dihydro-2H-1-benzopyran-6-yl)-7-[(3-methylpyridin-2-yl)methoxy]-1-oxo-1,2-dihydroisoquinolin-3-yl]acetic acid] | 330 nM
Cc1c(-c2c(C(OC(C)(C)C)C(=O)O)n(C)c(=O)c3cc(OCc4ccccc4F)ccc23)ccc2c1CCCO2 (centres unmarked) [Example 103, 2-(tert-butoxy)-2-{7-[(2-fluorophenyl)methoxy]-2-methyl-4-(5-methyl-3,4-dihydro-2H-1-benzopyran-6-yl)-1-oxo-1,2-dihydroisoquinolin-3-yl}acetic acid] | 50 nM
Cc1c(-c2c(C(OC(C)(C)C)C(=O)O)n(C)c(=O)c3cc(OCc4cccc(F)c4)ccc23)ccc2c1CCCO2 (centres unmarked) [Example 104, 2-(tert-butoxy)-2-{7-[(3-fluorophenyl)methoxy]-2-methyl-4-(5-methyl-3,4-dihydro-2H-1-benzopyran-6-yl)-1-oxo-1,2-dihydroisoquinolin-3-yl}acetic acid] | 60 nM
Cc1nc(COc2ccc3c(-c4cc(F)c5c(c4C)CCCO5)c([C@H](OC(C)(C)C)C(=O)O)n(C)c(=O)c3c2)c(C)o1 [Example 105, (2S)-2-(tert-butoxy)-2-{7-[(dimethyl-1,3-oxazol-4-yl)methoxy]-4-(8-fluoro-5-methyl-3,4-dihydro-2H-1-benzopyran-6-yl)-2-methyl-1-oxo-1,2-dihydroisoquinolin-3-yl}acetic acid] | 100 nM
COc1ccc2c(-c3cc(F)c4c(c3C)CCCO4)c([C@H](OC(C)(C)C)C(=O)O)n(C)c(=O)c2c1 [Example 106, (2S)-2-(tert-butoxy)-2-[4-(8-fluoro-5-methyl-3,4-dihydro-2H-1-benzopyran-6-yl)-7-methoxy-2-methyl-1-oxo-1,2-dihydroisoquinolin-3-yl]acetic acid] | 40 nM
Cc1c(-c2c([C@H](OC(C)(C)C)C(=O)O)n(C)c(=O)c3cc(OCc4ccc(F)cc4F)ccc23)cc(F)c2c1CCCO2 [Example 107, (2S)-2-(tert-butoxy)-2-{7-[(2,4-difluorophenyl)methoxy]-4-(8-fluoro-5-methyl-3,4-dihydro-2H-1-benzopyran-6-yl)-2-methyl-1-oxo-1,2-dihydroisoquinolin-3-yl}acetic acid] | 20 nM
Cc1c(-c2c([C@H](OC(C)(C)C)C(=O)O)n(C)c(=O)c3cc(OCc4ccc(F)c(F)c4)ccc23)ccc2c1CCCO2 [Example 108, (2S)-2-(tert-butoxy)-2-{7-[(3,4-difluorophenyl)methoxy]-2-methyl-4-(5-methyl-3,4-dihydro-2H-1-benzopyran-6-yl)-1-oxo-1,2-dihydroisoquinolin-3-yl}acetic acid] | 30 nM
Cc1c(-c2c([C@H](OC(C)(C)C)C(=O)O)n(C)c(=O)c3cc(OCc4cccs4)ccc23)cc(F)c2c1CCCO2 [Example 109, (2S)-2-(tert-butoxy)-2-[4-(8-fluoro-5-methyl-3,4-dihydro-2H-1-benzopyran-6-yl)-2-methyl-1-oxo-7-(thiophen-2-ylmethoxy)-1,2-dihydroisoquinolin-3-yl]acetic acid] | 20 nM
Cc1c(-c2c([C@H](OC(C)(C)C)C(=O)O)n(C)c(=O)c3cc(OCc4ccc(Cl)s4)ccc23)cc(F)c2c1CCCO2 [Example 110, (2S)-2-(tert-butoxy)-2-{7-[(5-chlorothiophen-2-yl)methoxy]-4-(8-fluoro-5-methyl-3,4-dihydro-2H-1-benzopyran-6-yl)-2-methyl-1-oxo-1,2-dihydroisoquinolin-3-yl}acetic acid] | 40 nM
Cc1c(-c2c([C@H](OC(C)(C)C)C(=O)O)n(C)c(=O)c3cc(OCc4cccs4)ccc23)ccc2c1CCCO2 [Example 111, (2S)-2-(tert-butoxy)-2-[2-methyl-4-(5-methyl-3,4-dihydro-2H-1-benzopyran-6-yl)-1-oxo-7-(thiophen-2-ylmethoxy)-1,2-dihydroisoquinolin-3-yl]acetic acid] | 30 nM
Cc1c(-c2c([C@H](OC(C)(C)C)C(=O)O)n(C)c(=O)c3cc(OCc4ccc(Cl)s4)ccc23)ccc2c1CCCO2 [Example 112, (2S)-2-(tert-butoxy)-2-{7-[(5-chlorothiophen-2-yl)methoxy]-2-methyl-4-(5-methyl-3,4-dihydro-2H-1-benzopyran-6-yl)-1-oxo-1,2-dihydroisoquinolin-3-yl}acetic acid] | 50 nM
Cc1ccc(COc2ccc3c(-c4cc(F)c5c(c4C)CCCO5)c([C@H](OC(C)(C)C)C(=O)O)n(C)c(=O)c3c2)s1 [Example 113, (2S)-2-(tert-butoxy)-2-[4-(8-fluoro-5-methyl-3,4-dihydro-2H-1-benzopyran-6-yl)-2-methyl-7-[(5-methylthiophen-2-yl)methoxy]-1-oxo-1,2-dihydroisoquinolin-3-yl]acetic acid] | 30 nM
Cc1c(-c2c(C(OC(C)(C)C)C(=O)O)n(C)c(=O)c3cc(OC(F)F)ccc23)ccc2c1CCCO2 (centres unmarked) [Example 114, 2-(tert-butoxy)-2-[7-(difluoromethoxy)-2-methyl-4-(5-methyl-3,4-dihydro-2H-1-benzopyran-6-yl)-1-oxo-1,2-dihydroisoquinolin-3-yl]acetic acid] | 420 nM
Cc1ccc2c(-c3ccc4c(c3C)CCCO4)c([C@H](OC(C)(C)C)C(=O)O)n(C)c(=O)c2c1 [Example 115, (2S)-2-(tert-butoxy)-2-[2,7-dimethyl-4-(5-methyl-3,4-dihydro-2H-1-benzopyran-6-yl)-1-oxo-1,2-dihydroisoquinolin-3-yl]acetic acid] | 20 nM
CC(=O)N1CCOc2ccc(-c3c(C(OC(C)(C)C)C(=O)O)n(C)c(=O)c4ccccc34)c(Cl)c21 (centres unmarked) [Example 116, 2-[4-(4-acetyl-5-chloro-3,4-dihydro-2H-1,4-benzoxazin-6-yl)-2-methyl-1-oxo-1,2-dihydroisoquinolin-3-yl]-2-(tert-butoxy)acetic acid] | 33200 nM
Cc1c(-c2c(C(OC(C)(C)C)C(=O)O)n(C)c(=O)c3cc(OCCN4CCCC4)ccc23)ccc2c1CCCO2 (centres unmarked) [Example 117, 2-(tert-butoxy)-2-[2-methyl-4-(5-methyl-3,4-dihydro-2H-1-benzopyran-6-yl)-1-oxo-7-[2-(pyrrolidin-1-yl)ethoxy]-1,2-dihydroisoquinolin-3-yl]acetic acid] | 4090 nM
Cn1c(C(OC(C)(C)C)C(=O)O)c(-c2cnc3c(c2)CCCO3)c2ccccc2c1=O (centres unmarked) [Example 118, 2-(tert-butoxy)-2-(2-methyl-1-oxo-4-{2H,3H,4H-pyrano[2,3-b]pyridin-6-yl}-1,2-dihydroisoquinolin-3-yl)acetic acid] | 41600 nM
Cc1c(-c2c(C(OC(C)(C)C)C(=O)O)n(C)c(=O)c3cc(OCCN4CCOCC4)ccc23)ccc2c1CCCO2 (centres unmarked) [Example 119, 2-(tert-butoxy)-2-[2-methyl-4-(5-methyl-3,4-dihydro-2H-1-benzopyran-6-yl)-7-[2-(morpholin-4-yl)ethoxy]-1-oxo-1,2-dihydroisoquinolin-3-yl]acetic acid] | 2130 nM
COc1cc2c(=O)n(C)c(C(OC(C)(C)C)C(=O)O)c(-c3ccc4c(c3C)CCCO4)c2cc1C (centres unmarked) [Example 120, 2-(tert-butoxy)-2-[7-methoxy-2,6-dimethyl-4-(5-methyl-3,4-dihydro-2H-1-benzopyran-6-yl)-1-oxo-1,2-dihydroisoquinolin-3-yl]acetic acid] | 230 nM

From patent US9029391B2 (priority 2011, dated 2015)
